Results taken from patent US20110251258A1, “RNAI CONSTRUCTS AND USES THEREOF” (RXi Pharmaceuticals Corporation, priority 2008, published 2011).

Columns and labels:
PPIB = details: for PPIB gene silencing activity (in words): transfection assay as in Example I; for EC50: PPIB expression, HEK293, 48 hours after transfection, dose response with RISC-Free filler; for relative expression of PPIB remaining after transfection: HEK293, 48 hour incubation, even at 10 nM, compared to negative control 10837 and UTC; for activity at sub-nano molar concentrations / target gene expression at about 0.1 nM: HEK293, with RISC-Free filler; for EC50 fold higher than that of the 25-mer dsRNA 10460: from the EC50 table of Example III
From the text: Positive and negative controls were also included. As shown and described in FIG. 4, construct prepared from single-stranded polynucleotide 10837 (SEQ ID NO: 6) was used as a negative control. […] This structure, denoted as construct 10460 (5′P-mCmUmCm[…]mAmAmAmA-3′, SEQ ID NO: 7) in this example, contains 2′-O-methyl modified bases on 4 of the outermost positions at both ends of the sequence.
(§1) All constructs were transfected into HEK293 cells using the LIPOFECTAMINE™ RNAiMAX reagent (Invitrogen Corp., Carlsbad, Calif.) according to manufacture's instructions. In brief, RNA was diluted to a 12× concentration and then combined with a 12× concentration of LIPOFECTAMINE™ RNAiMAX to complex. The RNA and transfection reagent were allowed to complex at room temperature for 20 minutes to yield a 6× concentration. While complexing, HEK293 cells were washed, trypsinized and counted. The cells were diluted to a concentration recommended by the manufacturer which was at 1×10^5 cells/ml. When RNA has completed complexing with the RNAiMAX transfection reagent, 20 μl of the complexes were added to the appropriate well of the 96-well plate in triplicate. Cells were added to each well (100 μl volume) to make the final cell count per well at 1×10^4 cells/well. The volume of cells diluted the 6× concentration of complex to 1× which was equal to 50, 25, or 10 nM. Cells were incubated for 48 hours under normal growth conditions. After 48 hour incubation, cells were lysed and gene silencing activity was measured using the Panomics […]™ assay which employs bDNA hybridization technology. The assay was carried out according to manufacturer's instructions.
Active RNAi construct stocks at 100 or 10 μM were used to make a 3 μM working dilution in RNA Buffer (1:33.333 dilution) by mixing 30 μl of a 10 μM stock+70 μl RNA Buffer. Diluted RNAi compound plates were prepared in a 96 well plate of 0.2 mL PCR tubes as follows:
a. 50 nM Condition (dilute RNA compound to 12× or to 600 nM in OptiMEM, Reduced Serum Medium, Invitrogen Corp., Carlsbad, Calif.): • i. Add 80 μl of OptiMEM to each well • ii. Add 20 μl of working stock RNAi compound (3 μM) to each well with OptiMEM
b. 25 nM Condition (dilute RNA to make 12× or to 300 nM in OptiMEM): • i. Add 50 μl of OptiMEM to each well • ii.
c. 10 nM Condition (dilute RNA compound to 12× or to 120 nM in OptiMEM): • i. Add 30 μl of OptiMEM to each well • ii.
A bulk amount of diluted RNAiMAX and LIPOFECTAMINE™ were made as follows:
a. 1,470 μl Opti-MEM+30 μl RNAiMAX
c. Combine RNAiMAX and Opti-MEM, Lipofectamine and Opti-MEM, mix gently.
Diluted RNAiMAX or LIPOFECTAMINE™ (35 μl each) was added to each 0.2 ml PCR well. Then, 35 μl of diluted RNAi compound from the RNA plate (above) was also added to each well. Each well contained enough for duplicates at a given dose. Each reaction mixture was gently mixed by pipetting up and down 3 times. The mixture was allowed to complex for at least 15 minutes at room temperature. Meanwhile, a suspension of cells at 1×10^5 cells/ml was prepared. After 15 minutes, 20 μl of complexed RNAi was added to each tissue-culture treated 96-well using a multi-channel pipettor. The prepared cell suspension was added to each reaction at a final volume of 1×10^4 cells (100 μl of cell suspension) and allowed to incubate for 48 hours at 37° C., 10% CO2.
Constructs 10460 (SEQ ID NO: 7, see above, a 25-bp double-stranded RNA with blunt ends) and 10167.2 (a 21-bp double-stranded RNA) were included as positive controls. Untransfected control (UTC) was included as a negative control. Transfections were performed as in Example I or according to the manufactures' recommendation. Each construct (except for the UTC) was transfected at a final concentration of about 50 nM, 25 nM, 10 nM, 5 nM, and 1 nM.
The RISC-Free filler is a commercially available control.

MAP4K4 = tested on: MAP4K4
Method: as §1

Row | Substance | PPIB gene silencing activity (in words) (PPIB) | PPIB silencing potency compared with another construct (PPIB) | EC50 (PPIB) [nM] | also measured
1 | SS: G.G.A.A.A.G.A.C.U.G.U.U.C.C.A.A. A.A.A AS: U.U.U.U.U.G.G.A.A.C.A.G.U. [compound 12000, reference compound] | essentially inactive |  |  | 
2 | SS: P.mC.mU.mC.mU.U.C.G.G.A.A.A.G. A.C.U.G.U.U.C.C.A.mA.mA.mA.mA AS: U.U.U.U.U.G.G.A.A.C.A.G.U.C.U.U. U.C.C.G.A.A.G.A.G [compound 10460, reference compound] |  | more potent than the dsRNA construct 10463 | 0.014 | 
3 | U.A.G.A.C.U.U.C.C.A.C.A.G.A.I.I.U. I.I.A.A.G.U.C.U.A [compound 11993] |  |  |  | MAP4K4 gene silencing activity (in words) (MAP4K4): ineffective
4 | U.U.A.C.A.C.G.A.U.G.G.A.A.U.U.U. G.C.U.C.C.A.U.C.G.U.G.U.A.A [compound 12004] |  | less effective |  | 
5 | U.U.A.C.A.C.G.A.U.G.G.A.A.U.U.U. G.C.U.U.U.C.C.A.U.C.G.U.G.U.A.A. [compound 12003] |  | less effective |  | 
6 | U.U.U.U.U.G.G.A.A.C.A.G.U.C.U.U. U.C.C.A.C.U.G.U.U.C.C.A.A.A.A.A [compound 11975] |  | more potent that those designed based on the 10463 sequence (12003 and 12004) |  | 
7 | U.U.U.U.U.G.G.A.A.C.A.G.U.C.U.U. U.C.C.U.G.U.U.C.C.A.A.A.A.A [compound 11976] |  | more potent that those designed based on the 10463 sequence (12003 and 12004) |  | 
8 | UUUUUGGAACAGUCUUUCCACUGUUCCAAAAA [compound 10833] | can inhibit PPIB expression |  | 0.599 | relative expression of PPIB remaining after transfection (PPIB): dramatically decrease PPIB expression; activity at sub-nano molar concentrations (PPIB): remained partially active; target gene expression at about 0.1 nM (PPIB): at least negative control level; EC50 fold higher than that of the 25-mer dsRNA 10460 (PPIB): about 60 fold
9 | UUUUUGGAACAGUCUUUCCUGUUCCAAAAA [compound 10834] | can inhibit PPIB expression |  | 1.54 | relative expression of PPIB remaining after transfection (PPIB): dramatically decrease PPIB expression; activity at sub-nano molar concentrations (PPIB): remained partially active; target gene expression at about 0.1 nM (PPIB): at least negative control level; EC50 fold higher than that of the 25-mer dsRNA 10460 (PPIB): about 110 fold
